Measured values published in article PMC8308784, “Novel Purine Chemotypes with Activity against Plasmodium falciparum and Trypanosoma cruzi” (Pharmaceuticals, 2021).
Like-named read-outs stand apart in the source and are kept apart here.

Key:
[1] = system: T. cruzi Tulahuen strain expressing β-galactosidase; assay: anti-T. cruzi dose-response growth inhibition assay (Vero cells plus trypomastigotes, CPRG readout); assay type: cell-based; conditions: Vero cells plus trypomastigotes, MOI 1, four days, mean (SD), read-out: T. cruzi IC50 a (anti-T. cruzi assay)
Vero cells = assay: Vero cell toxicity assay (alamarBlue); assay type: cell-based, green monkey; conditions: 4 days; minimum value of the 95% CI, except BNZ (mean (SD))
Experimental: Human erythrocytes were purified from B+ Rh+ blood samples and maintained at 4 °C in incomplete RPMI medium. Vero (green monkey kidney epithelial cells), LLC-MK2 (Rhesus monkey kidney epithelial cells), and HepG2 (human liver epithelial cells) cultures were cultivated in DMEM supplemented with 1% penicillin–streptomycin (PS) and 10% heat-inactivated fetal bovine serum (FBS) at 37 °C, 5% CO2, and >95% humidity, as described in [31]. HepG2 cells were also supplemented with 10% non-essential amino acids. Vero and MK2 cells were passaged twice per week at 1:12 ratios, while HepG2 cells were passaged at a 1:8 ratio.
Vero and HepG2 cells were detached, centrifuged, and resuspended in DMEM without phenol red. Cell viability was checked upon cell counting with trypan blue staining. Then, Vero and HepG2 cells were diluted at a concentration of 5 × 10^5 and 3.2 × 10^5 cells per mL, respectively, before adding 100 µL per well to the 96-well plate. Each run contained its own negative (untreated cells) and positive (medium alone) controls. Plates were incubated at 37 °C for 4 days in the case of Vero, or 2 in the case of HepG2 cells. Assay readout was made by adding 50 µL per well of a PBS solution containing 10% alamarBlue reagent (Thermo Fisher Scientific); then, plates were incubated for another 6 h at 37 °C, before recording the fluorescence intensity with a Tecan Infinite M Nano+ reader (excitation: 530 nm, emission: 590 nm).
Absorbance values derived from the anti-T. cruzi assays and fluorescence values from the anti-P. falciparum and cell toxicity assays were normalized to the controls. In the primary screening at three fixed doses, the compounds’ inhibitory activity was expressed as a percentage of the negative control (100% parasitic growth). In dose–response assays, the compounds’ IC50 and TC50 values were determined with GraphPad Prism 7 software (version 7.00, 2016), using a non-linear regression analysis model defined by the following equation: Y=100 ÷(1+10^((LogIC50−X)×HillSlope))

P. falciparum 3D7 = assay: P. falciparum primary screening at three fixed concentrations; assay type: cell-based; conditions: average of at least three experiments; for activity at 1 µM / activity at 10 µM / activity at 100 µM: Plasmodium falciparum, read-out: Primary screening, parasite growth relative to the negative control; for activity at 1 µM: 3D7, compound at 1 µM; for activity at 10 µM: 3D7, compound at 10 µM; for activity at 100 µM: 3D7, compound at 100 µM
[2] = Trypanosoma cruzi, TULAHUEN, 96 h

With `COC(=O)c1ccccc1-n1cc(COc2ncnc3c2nc(-c2ccccc2)n3N(C)C)nn1` [Compound 34] the IC50 [1, 2] was 4.12 µM, the “Vero Cells TC50” value (Vero cells) was over 6000 µM and the activity at 1 µM (P. falciparum 3D7) was 95.6%. For the same molecule, the activity at 10 µM (P. falciparum 3D7) was 85% and the activity at 100 µM (P. falciparum 3D7) was 43.2%.
In the case of `CC(C)(C)n1c(-c2ccccc2)nc2c(OCc3ccccc3)ncnc21` [Compound 6D], the IC50 [1, 2] is reported as 5.56 µM, the “Vero Cells TC50” value (Vero cells) is reported as over 150 µM and the activity at 1 µM (P. falciparum 3D7) is reported as 117%. The activity at 10 µM (P. falciparum 3D7) was 114% and the activity at 100 µM (P. falciparum 3D7) was 13.2%.
For `c1ccc(CCn2c(-c3ccccc3)nc3c(OCc4ccccc4)ncnc32)cc1` [Compound 6g], the IC50 [1] was 3.97 µM, the “Vero Cells TC50” value (Vero cells) was over 150 µM and the “Primary screening, parasite growth relative to the negative control” value (P. falciparum 3D7; compound at 1 µM) was 100.79%. The “Primary screening, parasite growth relative to the negative control” value (P. falciparum 3D7; compound at 10 µM) was 94.94% and the “Primary screening, parasite growth relative to the negative control” value (P. falciparum 3D7; compound at 100 µM) was 24.45%.
